From patent US20180186742A1, “PICOLINAMIDES AS FUNGICIDES” (Dow AgroSciences LLC, priority 2017, published 2018)
Read-outs that look alike come from different tables or passages of the source.

Legend:
Format in all cases: in vivo
[1] = test system: Glomerella lagenarium; Anamorph: Colletotrichum lagenarium; experiment: Cucumber anthracnose (COLLLA), disease control on cucumber seedlings; conditions: Colletotrichum orbiculare, 1DP test at 100 ppm, read-out: COLLLA disease control rating
Method: Technical grades of materials were dissolved in acetone, which were then mixed with nine volumes of water containing 110 ppm Triton X-100. The fungicide solutions were applied onto wheat seedlings using an automated booth sprayer to run-off. All sprayed plants were allowed to air dry prior to further handling. All fungicides were evaluated using the aforementioned method for their activity vs. all target diseases, unless stated otherwise. Wheat leaf blotch and brown rust activity were also evaluated using track spray applications, in which case the fungicides were formulated as EC formulations, containing 0.1% Trycol 5941 in the spray solutions. Cucumber seedlings (variety Bush Pickle) were propagated in soil-less Metro mix, with each pot having one plant, and used in the test when 12 to 14 days old. Test plants were inoculated with an aqueous spore suspension of Colletotrichum lagenarium 24 hr after fungicide treatments. After inoculation the plants were kept in a dew room at 22° C. with 100% relative humidity for 48 hr to permit spores to germinate and infect the leaf. The plants were then transferred to a growth room set at 22° C. for disease to develop. Fungicide formulation, application and disease assessment on the sprayed leaves followed the procedures as described in the Example A.

Zymoseptoria tritici = experiment: Leaf blotch of wheat (SEPTTR), disease control on wheat seedlings; conditions: low volume application at 121.5 g/H
How it was run: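 Yuma wheat seedlings with the first leaf fully emerged were sprayed to run-off with compound in acetone plus nine volumes of water containing 110 ppm Triton X-100; track-spray tests used EC formulations with 0.1% Trycol 5941. Z. tritici inoculation came before or after treatment, followed by 100% RH dew periods and a 20 °C greenhouse. Percent control was calculated from severity versus untreated plants.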

Rhyncosporium secalis = experiment: Barley scald (RHYNSE), disease control on barley seedlings; conditions: Hordeum vulgare, 24 h, 1DP (1 Day Protectant) test at 100 ppm
Method: Technical grades of materials were dissolved in acetone, which were then mixed with nine volumes of water containing 110 ppm Triton X-100. The fungicide solutions were applied onto wheat seedlings using an automated booth sprayer to run-off. All sprayed plants were allowed to air dry prior to further handling. All fungicides were evaluated using the aforementioned method for their activity vs. all target diseases, unless stated otherwise. Wheat leaf blotch and brown rust activity were also evaluated using track spray applications, in which case the fungicides were formulated as EC formulations, containing 0.1% Trycol 5941 in the spray solutions. Barley seedlings (variety Harrington) were propagated in soil-less Metro mix, with each pot having 8 to 12 plants, and used in the test when first leaf was fully emerged. Test plants were inoculated by an aqueous spore suspension of Rhyncosporium secalis 24 hr after fungicide treatments. After inoculation the plants were kept in a dew room at 20° C. with 100% relative humidity for 48 hr. The plants were then transferred to a greenhouse set at 20° C. for disease to develop. Fungicide formulation, application and disease assessment on the sprayed leaves followed the procedures as described in the Example A.

Cercospora beticola = experiment: Leaf spot of sugar beets (CERCBE), disease control on sugar beet plants; conditions: 1DP test at 100 ppm, read-out: CERCBE disease control rating
Method: Technical grades of materials were dissolved in acetone, which were then mixed with nine volumes of water containing 110 ppm Triton X-100. The fungicide solutions were applied onto wheat seedlings using an automated booth sprayer to run-off. All sprayed plants were allowed to air dry prior to further handling. All fungicides were evaluated using the aforementioned method for their activity vs. all target diseases, unless stated otherwise. Wheat leaf blotch and brown rust activity were also evaluated using track spray applications, in which case the fungicides were formulated as EC formulations, containing 0.1% Trycol 5941 in the spray solutions. Sugar beet plants (variety HH88) were grown in soil-less Metro mix and trimmed regularly to maintain a uniform plant size prior to test. Plants were inoculated with a spore suspension 24 hr after fungicide treatments. Inoculated plants were kept in a dew chamber at 22° C. for 48 hr then incubated in a greenhouse set at 24° C. under a clear plastic hood with bottom ventilation until disease symptoms were fully expressed. Fungicide formulation, application and disease assessment on the sprayed leaves followed the procedures as described in the Example A.

[2] = test system: Magnaporthe grisea; Anamorph: Pyricularia oryzae; experiment: whole plant or invertebrate; conditions: 24 h, read-out: PYRIOR Disease Control
[3] = 24 h, 1 Day Protectant, read-out: SEPTTR disease control, 1DP, LV activity
[4] = 72 h, 3 Day Curative, read-out: SEPTTR disease control, 3DC, LV activity
[5] = 24 h, 1 Day Protectant, wheat leaf blotch, read-out: SEPTTR 1DP disease control, LV activity
[6] = 72 h, 3 Day Curative, wheat leaf blotch, read-out: SEPTTR 3DC disease control, LV activity

SMILES | pest or weed control at 100 ppm [1] | pest or weed control at 121.5 g/ha (Zymoseptoria tritici; [3]) | pest or weed control at 121.5 g/ha (Zymoseptoria tritici; [4]) | pest or weed control at 100 ppm (Rhyncosporium secalis) | pest or weed control at 100 ppm (Cercospora beticola) | pest or weed control at 100 ppm [2] | pest or weed control at 121.5 g/ha (Zymoseptoria tritici; [5]) | pest or weed control at 121.5 g/ha (Zymoseptoria tritici; [6])
COc1ccnc(C(=O)N[C@@H](C)C(=O)O[C@@H](C)[C@H](c2ccc(F)cc2C)C(C)C)c1OC(C)=O [Compound 186] | < 0% | > 80% | > 80% | < 80% | > 80% | > 80% |  | 
CCC(CC)[C@@H](c1ccc(F)cc1C)[C@H](C)OC(=O)[C@H](C)NC(=O)c1nccc(OC)c1OC(C)=O [Compound 187] | > 80% | > 80% | > 80% | > 80% | > 80% | > 80% |  | 
COc1ccnc(C(=O)N[C@@H](C)C(=O)O[C@@H](C)[C@H](c2ccc(F)cc2C)C(C)C)c1OC(=O)C(C)C [Compound 216] | < 80% | > 80% | > 80% | < 80% | > 80% | > 80% |  | 
COc1ccnc2c(=O)n([C@@H](C)C(=O)O[C@@H](C)[C@H](c3ccc(F)cc3C)C(C)C)c(=O)oc12 [Compound 217] | < 0% | > 80% | > 80% | < 80% | > 80% | > 80% |  | 
COc1cc[n+]([O-])c(C(=O)N[C@@H](C)C(=O)O[C@@H](C)[C@H](c2ccc(F)cc2C)C(C)C)c1O [Compound 218] | < 80% | > 80% | < 80% | < 80% | > 80% | > 80% |  | 
COc1ccnc(C(=S)N[C@@H](C)C(=O)O[C@@H](C)[C@H](c2ccc(F)cc2C)C(C)C)c1OC(C)=O [Compound 219] | < 80% | < 80% | > 80% | < 80% | > 80% | > 80% |  | 
COCCC(=O)Oc1c(OC)ccnc1C(=O)N[C@@H](C)C(=O)O[C@@H](C)[C@H](c1ccc(F)cc1C)C(C)C [Compound 220] | < 80% | > 80% | > 80% | < 80% | > 80% | > 80% |  | 
COc1ccnc(C(=O)N[C@@H](C)C(=O)O[C@@H](C)[C@H](c2ccc(F)cc2C)C(C)C)c1OC(=O)C1CCCC1 [Compound 354] | > 80% | > 80% | > 80% | < 80% | > 80% | < 80% |  | 
CCC(C)C(=O)Oc1c(OC)ccnc1C(=O)N[C@@H](C)C(=O)O[C@@H](C)[C@H](c1ccc(F)cc1C)C(C)C (some centres unmarked) [Compound 355] | > 80% | > 80% | > 80% | < 80% | > 80% | < 80% |  | 
COc1ccnc(C(=O)N[C@@H](C)C(=O)O[C@@H](C)[C@H](c2ccc(F)cc2C)C(C)C)c1OC(=O)CC(C)C [Compound 356] | < 80% | > 80% | > 80% | < 80% | > 80% | < 80% |  | 
CCC(=O)Oc1c(OC)ccnc1C(=O)N[C@@H](C)C(=O)O[C@@H](C)[C@H](c1ccc(F)cc1C)C(C)C [Compound 357] | > 80% | > 80% | > 80% | < 80% | > 80% | < 80% |  | 
COc1ccnc(C(=O)N[C@@H](C)C(=O)O[C@@H](C)[C@H](c2cccc(F)c2C)C(C)C)c1OC(C)=O [Compound 359] | > 80% | < 80% | > 80% | > 80% | > 80% | > 80% |  | 
COc1ccnc(C(=O)N[C@@H](C)C(=O)O[C@@H](C)[C@H](c2cccc(C)c2C)C(C)C)c1OC(C)=O [Compound 363] | < 80% | < 80% | < 80% | < 80% | > 80% | > 80% |  | 
COc1ccnc(C(=O)N[C@@H](C)C(=O)O[C@@H](C)[C@H](c2ccccc2C)C(C)C)c1OC(C)=O [Compound 364] | > 80% |  |  | < 80% | > 80% | > 80% | < 80% | < 80%
CCOC(=O)Oc1c(OC)ccnc1C(=O)N(C(=O)OCC)[C@@H](C)C(=O)O[C@@H](C)[C@H](c1ccc(F)cc1C)C(C)C [Compound 371] | > 80% |  |  | < 80% | > 80% | < 80% |  | 
CCOC(=O)Oc1c(OC)ccnc1C(=O)N[C@@H](C)C(=O)O[C@@H](C)[C@H](c1ccc(F)cc1C)C(C)C [Compound 372] | > 80% |  |  | < 80% | > 80% | < 80% |  | 
COc1ccnc(C(=O)N[C@@H](C)C(=O)O[C@@H](C)[C@H](c2ccc(F)cc2C)C(C)C)c1OC(=O)OC(C)C [Compound 373] | > 80% |  |  | < 80% | > 80% | < 80% | > 80% | > 80%
COc1ccnc(C(=O)N[C@@H](C)C(=O)O[C@@H](C)[C@H](c2ccc(F)cc2C)C(C)C)c1OC(=O)C(C)(C)C [Compound 374] | < 80% |  |  | < 80% | > 80% | < 80% | > 80% | > 80%
COc1ccnc(C(=O)N[C@@H](C)C(=O)O[C@@H](C)[C@H](c2ccccc2C)C(C)C)c1OC(=O)C(C)C [Compound 375] | > 80% |  |  | < 80% | > 80% | > 80% | < 80% | > 80%
